Experimental data: patent US11964938B2, “3-phenyl-4-hexynoic acid derivatives as GPR40 agonists” (CELON PHARMA S.A., priority 2018, dated 2024)

Tests used:
human GPR40 receptor = target: T1, human GPR40 receptor (Homo sapiens, UniProt O14842); assay: Analysis of receptor activation - calcium ions concentration measurement (aequorin luminescence); assay type: cell-based; settings: enhancement or decrease of activity in relation to reference TAK-875, from EC50 values
T1 construct: host or cells: CHO-K1 (co-expressing aequorin)
From the text: Experiment B1: Analysis of Receptor Activation—Calcium Ions Concentration Measurement.
As a result of the measurement, luminescence change in the time curve were obtained, the integration of which allowed to calculate the relative amount of calcium ions released to cytosol. […] Curves plotted from obtained results allowed to determine EC50 values.

[1] = system: MIN6 (mouse insulinoma) cells; assay: Glucose-dependent insulin release in mouse insulinoma cells (MIN6); assay type: cell-based; settings: multiplicity of insulin efflux increase in relation to control; 10 uM compound, 20 mM glucose, 1 hour
Method: Experiment B2: Glucose-Dependent Insulin Release in Mouse Insulinoma Cells (MIN6).
MIN6 (mouse insulinoma) cells were seeded on a plate covered with PDL (poly-D-lysine) at 5×10^5/well and cultured for 48 hours. […] Tested compounds, after dilution to the concentration of 10-40 uM in KRBH buffer with the addition of 20 mM glucose, were added to the cells and incubated for 1 hour to induce insulin release. Negative control was KRBH buffer with the addition of 2 mM glucose. Concentration of released insulin was determined using ELISA test (Mercodia).
Table 4 present MIN6Insulin @10 uM values for representative compounds of the invention. MIN6Insulin @10 uM value is a multiplicity of insulin efflux increase in relation to control experiment, following addition of 10 uM of tested compound.

[2] = system: Wistar HAN Crl:WI (HAN) rats; assay: Glucose tolerance test in vivo on rats; parameters: species or system rat; settings: 10 mg/kg oral single dose, blood; for AUC for glucose (0-540 min.): i.p. glucose bolus at t=0 and 6 h; for AUC for insulin (0-180 min.): i.p. glucose bolus
Method: Experiment B3: Glucose Tolerance Test In Vivo on Rats.
To evaluate glucose lowering effect of the compounds in in vivo study, glucose tolerance test (GTT) was performed. The study was performed on male outbred Wistar HAN Crl:WI (HAN) rats from Charles River, weight about 250-300 g, 8-10 weeks old. Rats were starved for 12 hours (with free access to water).
At time point t=0 animals were given orally a single dose of a compound (by a gastric tube) and immediately (t=0) and after 6 hour (t=6 h) intraperitoneal (i.p.) glucose bolus ([…]). At time points t=0 (just before oral administration of the compounds and intraperitoneal glucose administration), 0.25, 0.5, 1, 2, 2.5, 3, 6, 6.25, 7, 8, and 9 h blood samples from tail vein were collected from each animal for glucose level determination using Accu-chek glucometer (Roche Diagnostics) and additionally at t=0.25, 0.5, 1, 2, 2.5, and 3 h blood samples from tail vein were collected for insulin level measurement using ELISA test (Mercodia).
Tested compound were prepared in 5% DMSO/40% PEG300/55% PBS vehicle and administered at the dose of 10 mg/kg body weight in a volume of 0.5 ml/100 g body weight. After 4 hours after tested compound administration animals were given standard diet to the cages. Decrease of AUC value for glucose level in blood was calculated and the results for selected compounds of the invention are presented in Table 5. Analysis was performed using GraphPad prism software.

[3] = I phase of clinical trials; cited from earlier work
[4] = system: diabetes STZ-treated mice; assay: Von Frey test on diabetes STZ-treated mice (tactile allodynia); assay type: in vivo, mouse; settings: 60 minutes after administration, mean of group
Method: Experiment B5: Von Frey Test on Diabetes STZ-Treated Mice.
Tactile allodynia was assessed by electronic von Frey apparatus (Bioseb) equipped with a flexible filament. Reaction to stimuli was assessed using growing applied pressure (from 0 to 10 g) on a plantar side of the hind foot of mice. Pregabalin was a control, as reference healthy mice with preserved normal response to the stimuli were used. In the day of the experiment, mice were placed separately in cages with a wire mesh bottom for 1 h for habituation to experimental conditions. After habituation period, each mouse was treated 3 times alternately, with 30 s intervals between each measurement, to obtain starting values (before administration of the compound) of pain sensitivity. […] The results are presented in Table 7 as mean value for all mice in a given group (n=7-10).

T1 sequence (O14842 whole entry): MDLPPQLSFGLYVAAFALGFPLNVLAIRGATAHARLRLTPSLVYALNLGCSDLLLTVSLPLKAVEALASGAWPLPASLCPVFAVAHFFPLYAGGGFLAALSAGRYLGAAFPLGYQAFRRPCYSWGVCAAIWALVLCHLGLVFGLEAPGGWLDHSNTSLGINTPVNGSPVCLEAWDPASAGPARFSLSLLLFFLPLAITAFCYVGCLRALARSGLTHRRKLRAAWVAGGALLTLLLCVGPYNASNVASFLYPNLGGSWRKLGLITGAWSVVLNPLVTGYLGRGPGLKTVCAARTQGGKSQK

SMILES	% PTAK-875 (human GPR40 receptor)	other results
CC#C[C@@H](CC(=O)O)c1ccc(OCCC(C)CC)cc1 (mixture of isomers) [Example F38, (3S)-3-(4-{[(3R/S)-3-methylpentyl]oxy}phenyl)hex-4-ynoic acid]	B (81-120% PTAK-875)	–
CC#C[C@@H](CC(=O)O)c1ccc(OCC=C(C)C)cc1 [Example F28, (3S)-3-{4[(3-methylbut-2-en-1-yl)oxy]phenyl}hex-4-ynoic acid]	–	MIN6Insulin @10 uM [1]: 2.782; AUC for glucose (0-540 min.) [2]: 28377.4; AUC for insulin (0-180 min.) [2]: 499.2; melting point: 52.1 to 53.1 °C
C=C(C)CCOc1ccc([C@@H](C#CC)CC(=O)O)cc1 [Example F30, (3S)-3-{4[(3-methylbut-3-en-1-yl)oxy]phenyl}hex-4-ynoic acid]	A (>120% PTAK-875)	–
CC#C[C@@H](CC(=O)O)c1ccc(OCCCCCCC)cc1 [Example F5, (3S)-3-[4-(heptyloxy)phenyl]hex-4-ynoic acid]	A (>120% PTAK-875)	–
CC#C[C@@H](CC(=O)O)c1ccc(OCc2cccc(-c3ccc(C(F)(F)F)cc3)c2)cc1 [Example R2, (3S)-3-[4-({3-[4-(trifluoromethyl)phenyl]phenyl}methoxy)phenyl]-hex-4-ynoic acid, reference compound]	–	MIN6Insulin @10 uM [1]: 1.567; insulin plasma level [3]: enhanced insulin plasma level
CC#C[C@@H](CC(=O)O)c1ccc(OCC(C)C(C)C)cc1 (mixture of isomers) [Example F37, (3S)-3-{4-[(2R/S)-2,3-dimethylbutoxy]phenyl}hex-4-ynoic acid]	A (>120% PTAK-875)	–
CC#C[C@@H](CC(=O)O)c1ccc(OCCC(C)C)cc1 [Example F24, (3S)-3-[4-(3-methylbutoxy)phenyl]hex-4-ynoic acid]	–	MIN6Insulin @10 uM [1]: 2.627; AUC for glucose (0-540 min.) [2]: 24289.7; AUC for insulin (0-180 min.) [2]: 329.0; melting point: 26.4 to 27.1 °C
CC#CCCOc1ccc([C@@H](C#CC)CC(=O)O)cc1 [Example F21, (3S)-3-[4-(pent-3-yn-1-yloxy)phenyl]hex-4-ynoic acid]	C (51-80% PTAK-875)	–
C=CCCCOc1ccc([C@@H](C#CC)CC(=O)O)cc1 [Example F20, (3S)-3-[4-(pent-4-en-1-yloxy)phenyl]hex-4-ynoic acid]	B (81-120% PTAK-875)	–
CC#C[C@@H](CC(=O)O)c1ccc(OCC#CCC)cc1 [Example F22, (3S)-3-[4-(pent-2-yn-1-yloxy)phenyl]hex-4-ynoic acid]	C (51-80% PTAK-875)	–
CC#C[C@@H](CC(=O)O)c1ccc(OCCC)cc1 [Example F1, (3S)-3-(4-propoxyphenyl)hex-4-ynoic acid]	D (21-50% PTAK-875)	–
CC#C[C@@H](CC(=O)O)c1ccc(OCCCC(F)(F)F)cc1 [Example F39, (3S)-3-[4-(4,4,4-trifluorobutoxy)phenyl]hex-4-ynoic acid]	B (81-120% PTAK-875)	–
CC(C)C[C@H](CN)CC(=O)O [Pregabalin, reference compound]	–	Applied pressure causing the response, sick animal (neuropathic) after compound administration ([4]; 3 mg/kg p.o.): 2.04 g; Applied pressure causing the response, sick animal (neuropathic) after compound administration ([4]; 10 mg/kg p.o.): 2.65 g; Applied pressure causing the response, sick animal (neuropathic) after compound administration ([4]; 30 mg/kg p.o.): 4.11 g
CC#CC(CC(=O)O)c1ccc(OC/C=C(\C)CC/C=C(\C)CCC=C(C)C)cc1 (racemic) [Example F11, (3R/S)-3-(4-{[(2E,6E)-3,7,11-trimethyldodeca-2,6,10-trien-1-yl]oxy}-phenyl)hex-4-ynoic acid]	D (21-50% PTAK-875)	–
CC#C[C@@H](CC(=O)O)c1ccc(OC/C=C/CCC)cc1 [Example F18, (3S)-3-{4-[(2E)-hex-2-en-1-yloxy]phenyl}hex-4-ynoic acid]	A (>120% PTAK-875)	–
CC#C[C@@H](CC(=O)O)c1ccc(OCCCCCC)cc1 [Example F4, (3S)-3-[4-(hexyloxy)phenyl]hex-4-ynoic acid]	A (>120% PTAK-875)	–
C=C(C)/C=C/COc1ccc([C@@H](C#CC)CC(=O)O)cc1 [Example F34, (3S)-3-(4-{[(2E)-4-methylpenta-2,4-dien-1-yl]oxy}phenyl)hex-4-ynoic acid]	A (>120% PTAK-875)	melting point: 94.7 to 95.7 °C
CC#C[C@@H](CC(=O)O)c1ccc(OCC(C)=C(C)C)cc1 [Example F33, (3S)-3-{4-[(2,3-dimethylbut-2-en-1-yl)oxy]phenyl}hex-4-ynoic acid]	–	MIN6Insulin @10 uM [1]: 3.895; AUC for glucose (0-540 min.) [2]: 19393.1; AUC for insulin (0-180 min.) [2]: 519.1
CC#C[C@@H](CC(=O)O)c1ccc(OCCC(C)(C)C)cc1 [Example F27, (3S)-3-[4-(3,3-dimethylbutoxy)phenyl]hex-4-ynoic acid]	D (21-50% PTAK-875)	–
CC#C[C@@H](CC(=O)O)c1ccc(OC(CC)CC)cc1 [Example F17, (3S)-3-[4-(pentan-3-yloxy)phenyl]hex-4-ynoic acid]	E (<20% PTAK-875)	–
CC#C[C@@H](CC(=O)O)c1ccc(OC/C=C(\C)CCC=C(C)C)cc1 [Example F6, (3S)-3-(4-{[(2E)-3,7-dimethylocta-2,6-dien-1-yl]oxy}phenyl)hex-4-ynoic acid]	–	AUC for glucose (0-540 min.) [2]: 25184.1; AUC for insulin (0-180 min.) [2]: 492.5
CC#C[C@@H](CC(=O)O)c1ccc(OC/C=C/C=C/C)cc1 [Example F19, (3S)-3-{4-[(2E,4E)-hexa-2,4-dien-1-yloxy]phenyl}hex-4-ynoic acid]	A (>120% PTAK-875)	–
CC#C[C@@H](CC(=O)O)c1ccc(OCCCCC(F)(F)F)cc1 [Example F40, (3S)-3-{4[(5,5,5-trifluoropentyl)oxy]phenyl}hex-4-ynoic acid]	B (81-120% PTAK-875)	–
CC#CC(CC(=O)O)c1ccc(OCC(C)(C)C)cc1 (racemic) [Example F26, (3R/S)-3-[4-(2,2-dimethylpropoxy)phenyl]hex-4-ynoic acid]	E (<20% PTAK-875)	–
CC#C[C@@H](CC(=O)O)c1ccc(OC(C)C(C)C)cc1 (mixture of isomers) [Example F13, (3S)-3-(4-{[(2R/S)-3-methylbutan-2-yl]oxy}phenyl)hex-4-ynoic acid]	A (>120% PTAK-875)	–
CC#C[C@@H](CC(=O)O)c1ccc(OCCCC)cc1 [Example F2, (3S)-3-(4-butoxyphenyl)hex-4-ynoic acid]	A (>120% PTAK-875)	–
